Test results: the supplement of paper PMC10307832

How the values were obtained:
Assay in all cases: relative viability (nuclei count vs DMSO), 5 days (fraction); higher = more cells survive
Obatoclax + Palbociclib = compound: COC1=CC(c2cc3ccccc3[nH]2)=N/C1=C\c1[nH]c(C)cc1C [Obatoclax] + CC(=O)c1c(C)c2cnc(Nc3ccc(N4CCNCC4)cn3)nc2n(C2CCCC2)c1=O [Palbociclib] (partner 0.5 µM)
In short: (§1)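 Lung cancer cell lines were seeded in 1536-well plates and dosed by pin tool the next day, with either a single drug or a fixed anchor-drug dose combined with five library-drug doses (not always all listed) spaced in √10 steps. Five days later, one step fixed the cells and stained their nuclei (final 0.05% Triton X-100, 1% formaldehyde, 1 ug/ml Hoechst), and nuclei were counted on 4× images. Relative viability is the nuclei count in treated wells divided by the count in vehicle wells, and each value is the median of duplicate plates.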

Obatoclax + Olaparib = compound: COC1=CC(c2cc3ccccc3[nH]2)=N/C1=C\c1[nH]c(C)cc1C [Obatoclax] + O=C(c1cc(Cc2n[nH]c(=O)c3ccccc23)ccc1F)N1CCN(C(=O)C2CC2)CC1 [Olaparib] (partner 8 µM)
In short: as §1

Obatoclax + Crizotinib = compound: COC1=CC(c2cc3ccccc3[nH]2)=N/C1=C\c1[nH]c(C)cc1C [Obatoclax] + C[C@@H](Oc1cc(-c2cnn(C3CCNCC3)c2)cnc1N)c1c(Cl)ccc(F)c1Cl [Crizotinib] (partner 1 µM)
In short: as §1

[1] = compound: CC1=CC(=NN1)NC2=CC(=NC(=N2)/C=C/C3=CC=CC=C3)N4CCN(CC4)C + COc1cccc2cc(-c3nc([C@H]4CC[C@H](C(=O)O)CC4)n4ncnc(N)c34)[nH]c12 [OSI-027] (partner 0.5 µM)
In short: as §1

| Cell Line | relative viability (Obatoclax + Palbociclib; first compound 0.01 µM) | relative viability (Obatoclax + Palbociclib; first compound 0.03162 µM) | relative viability (Obatoclax + Palbociclib; first compound 0.1 µM) | relative viability (Obatoclax + Palbociclib; first compound 0.3162 µM) | relative viability (Obatoclax + Palbociclib; first compound 1 µM) | relative viability (Obatoclax + Olaparib; first compound 0.01 µM) | relative viability (Obatoclax + Olaparib; first compound 0.03162 µM) | relative viability (Obatoclax + Olaparib; first compound 0.1 µM) | relative viability (Obatoclax + Olaparib; first compound 0.3162 µM) | relative viability (Obatoclax + Olaparib; first compound 1 µM) | relative viability (Obatoclax + Crizotinib; first compound 0.01 µM) | relative viability (Obatoclax + Crizotinib; first compound 0.03162 µM) | relative viability (Obatoclax + Crizotinib; first compound 0.1 µM) | relative viability (Obatoclax + Crizotinib; first compound 0.3162 µM) | relative viability (Obatoclax + Crizotinib; first compound 1 µM) | relative viability ([1]; first compound 0.08 µM) | relative viability ([1]; first compound 0.253 µM) | relative viability ([1]; first compound 0.8 µM) | relative viability ([1]; first compound 2.53 µM) | relative viability ([1]; first compound 8 µM) |
| --- | --- | --- | --- | --- | --- | --- | --- | --- | --- | --- | --- | --- | --- | --- | --- | --- | --- | --- | --- | --- |
| LOU-NH91 | 0.497 | 0.523 | 0.429 | 0.422 | 0.464 | 0.921 | 0.919 | 0.834 | 0.857 | 0.398 | 0.768 | 0.628 | 0.703 | 0.874 | 0.759 | 0.767 | 0.842 | 0.742 | 0.699 | 0.507 |
| SK-MES-1 | 0.295 | 0.329 | 0.247 | 0.181 | 0.203 | 0.641 | 0.655 | 0.495 | 0.172 | 0.17 | 0.97 | 0.953 | 0.978 | 0.959 | 0.81 | 0.604 | 0.617 | 0.524 | 0.139 | 0.103 |
| LCLC-103H | 0.432 | 0.356 | 0.472 | 0.517 | 0.446 | 0.704 | 0.745 | 0.672 | 0.745 | 0.706 | 0.944 | 1.03 | 1.02 | 1.03 | 1.03 | 0.504 | 0.486 | 0.463 | 0.378 | 0.332 |
| NCI-H1915 | 0.527 | 0.557 | 0.521 | 0.486 | 0.522 | 0.269 | 0.256 | 0.252 | 0.257 | 0.247 | 0.898 | 0.835 | 0.864 | 0.877 | 0.901 | 0.635 | 0.496 | 0.557 | 0.371 | 0.271 |
| IA-LM |  |  |  |  |  | 0.832 | 0.881 | 0.775 | 0.782 | 0.114 | 0.667 | 0.91 | 0.529 | 0.0663 | 0.0759 |  |  |  |  |  |
| NCI-H1734 | 0.3 | 0.338 | 0.337 | 0.32 | 0.303 | 0.609 | 0.624 | 0.601 | 0.546 | 0.505 | 0.665 | 0.701 |  | 0.625 | 0.447 | 0.637 | 0.527 | 0.475 | 0.234 | 0.139 |
| NCI-H2170 | 0.372 | 0.4 | 0.393 | 0.368 | 0.43 | 0.574 | 0.607 | 0.574 | 0.585 | 0.655 | 1.13 | 1.13 | 1.11 | 1.2 | 1.09 | 0.759 | 0.728 | 0.683 | 0.377 | 0.189 |
| Calu-6 |  |  |  |  |  | 0.538 | 0.565 | 0.611 | 0.534 | 0.239 | 0.778 | 0.769 | 0.736 | 0.739 | 0.137 |  |  |  |  |  |
| HCC-15 | 0.672 | 0.728 | 0.695 | 0.752 | 0.609 | 0.734 | 0.769 | 0.694 | 0.763 | 0.704 | 0.768 | 0.821 | 0.741 | 0.776 | 0.689 | 0.665 | 0.642 | 0.549 | 0.158 | 0.0878 |
| SK-LU-1 | 0.367 | 0.419 | 0.352 | 0.326 | 0.317 | 0.448 | 0.468 | 0.372 | 0.447 | 0.347 | 1.03 | 0.836 | 0.761 | 0.403 | 0.339 | 0.367 | 0.299 | 0.376 | 0.119 | 0.0636 |
| NCI-H1395 | 0.554 | 0.602 | 0.597 | 0.6 | 0.439 | 0.454 | 0.418 | 0.444 | 0.529 | 0.332 |  |  |  |  |  | 0.56 | 0.621 | 0.625 | 0.387 | 0.26 |
| NCI-H1648 | 0.303 | 0.258 | 0.28 | 0.275 | 0.246 | 1.07 | 0.793 | 0.91 | 0.624 | 0.576 |  |  |  |  |  | 0.257 | 0.272 | 0.26 | 0.263 | 0.258 |
| NCI-H1623 |  |  |  |  |  |  |  |  |  |  |  |  |  |  |  | 0.412 | 0.41 | 0.411 | 0.377 | 0.282 |
| NCI-H1299 |  |  |  |  |  | 0.946 | 0.92 | 0.976 | 0.969 | 0.331 | 0.918 | 0.944 | 0.959 | 0.921 | 0.492 |  |  |  |  |  |
| NCI-H522 | 1.05 | 1.04 | 1.03 | 1.02 | 0.892 | 0.783 | 0.681 | 0.694 | 0.621 | 0.56 |  |  |  |  |  | 0.709 | 0.629 | 0.609 | 0.56 | 0.421 |
| NCI-H2342 | 0.506 | 0.524 | 0.582 | 0.501 | 0.487 | 0.419 | 0.409 | 0.448 | 0.515 | 0.473 |  |  |  |  |  | 0.557 | 0.594 | 0.662 | 0.577 | 0.381 |
| NCI-H596 |  |  |  |  |  | 0.671 | 0.675 | 0.552 | 0.492 | 0.458 | 0.987 | 0.898 | 0.946 | 0.655 | 0.565 | 0.633 | 0.72 | 0.671 | 0.34 | 0.247 |
| NCI-H1793 | 0.286 | 0.284 | 0.323 | 0.33 | 0.384 | 0.869 | 0.833 | 0.939 | 0.784 | 0.783 |  |  |  |  |  | 0.301 | 0.204 | 0.26 | 0.107 | 0.0726 |
| SW 900 | 0.619 | 0.543 | 0.605 | 0.475 | 0.363 | 0.893 | 0.803 | 0.924 | 0.703 | 0.606 |  |  |  |  |  | 0.493 | 0.58 | 0.489 | 0.259 | 0.0615 |
| NCI-H1703 |  |  |  |  |  | 0.18 | 0.403 | 0.393 | 0.524 | 0.246 | 0.762 | 0.697 | 0.394 | 0.348 | 0.311 |  |  |  |  |  |
